According to patent US10894798B2, “Substituted dihydropyrrolopyrazole derivative” (UBE INDUSTRIES, LTD., priority 2015, dated 2021):
pKi: −log10 of the molar value.

Columns and labels:
CDK2 = target: T1, CDK2 (Homo sapiens, UniProt P24941); experiment: CDK2 enzyme inhibition test; format: biochemical; conditions: [γ-33P]ATP, MBP substrate; Ki=IC50/(1+S/Km); read-out: Ki value of CDK2 inhibitory activity
T1 construct: purchased Invitrogen Corp. PV3267
Method: (§1) The preparation of a buffer solution was performed by mixing a N-2-hydroxyethylpiperazine-N′-2-ethanesulfonic acid buffer solution (HEPES buffer solution) (pH 7.4), dithiothreitol (DTT), Triton X-100, and magnesium chloride (MgCl2). A 500 μM [γ-^33P]ATP solution was used by diluting a 10 mM ATP solution and a commercially available [γ-^33P]ATP solution (manufactured by Perkin Elmer, Inc., Code No. NEG-302H) with the buffer solution. A CDK2 solution was used by diluting commercially available CDK2 (manufactured by Invitrogen Corp., Catalog No. PV3267) with the buffer solution. A substrate solution was used by diluting myelin basic protein (MBP) with the buffer solution. As for the preparation of a reaction solution, the buffer solution, the 500 μM [γ-^33P]ATP solution, the CDK2 solution, and the substrate solution were mixed at 4° C. to obtain a reaction solution.
(§2) CDK2 enzyme reaction was performed by adding 5 μL of a test compound solution prepared with 10% DMSO/90% injectable distilled water, and 45 μL of the reaction solution in a 1.5 mL microtube at 4° C. and reacting in the microtube at 30° C. for 20 minutes in a water bath incubator. After the reaction, a 10% aqueous trichloroacetic acid (TCA) solution was added to each microtube while cooled to 4° C., and mixed in a vortex mixer to terminate the reaction. The resultant was left standing at 4° C. for 10 minutes and then centrifuged, and the supernatant was discarded. Next, a 2% aqueous trichloroacetic acid (TCA) solution was added thereto, mixed in vortex mixer, and then centrifuged, and the supernatant was discarded. This washing operation was performed twice. After the washing, precipitates were dissolved in a 1 N aqueous sodium hydroxide (NaOH) solution, and the energy quantity (radioactivity) of the reaction product was measured with a liquid scintillation counter.
The calculation of the inhibitory activity of the test compound against CDK2 was performed as a test compound concentration inhibiting 50% of the amount of ^33P bound to MBP (IC50 value) by using EXSUS (version 8.1.0, manufactured by CAC Exicare Corp.).
(§3) The calculation of a Ki value was performed according to the following calculation expression wherein S represents the concentration of ATP contained in the reaction solution, and Km represents a Michaelis-Menten constant: Ki=IC50/(1+S/Km)

PLK1 = target: T2, PLK1 (Homo sapiens, UniProt P53350); experiment: PLK1 enzyme (polo-like kinase) inhibition test; format: biochemical; conditions: [γ-33P]ATP, casein substrate; Ki=IC50/(1+S/Km); read-out: Ki value of PLK1 inhibitory activity
T2 construct: purchased Carna Biosciences, Inc. 05-157
T2 sequence (P53350 whole entry): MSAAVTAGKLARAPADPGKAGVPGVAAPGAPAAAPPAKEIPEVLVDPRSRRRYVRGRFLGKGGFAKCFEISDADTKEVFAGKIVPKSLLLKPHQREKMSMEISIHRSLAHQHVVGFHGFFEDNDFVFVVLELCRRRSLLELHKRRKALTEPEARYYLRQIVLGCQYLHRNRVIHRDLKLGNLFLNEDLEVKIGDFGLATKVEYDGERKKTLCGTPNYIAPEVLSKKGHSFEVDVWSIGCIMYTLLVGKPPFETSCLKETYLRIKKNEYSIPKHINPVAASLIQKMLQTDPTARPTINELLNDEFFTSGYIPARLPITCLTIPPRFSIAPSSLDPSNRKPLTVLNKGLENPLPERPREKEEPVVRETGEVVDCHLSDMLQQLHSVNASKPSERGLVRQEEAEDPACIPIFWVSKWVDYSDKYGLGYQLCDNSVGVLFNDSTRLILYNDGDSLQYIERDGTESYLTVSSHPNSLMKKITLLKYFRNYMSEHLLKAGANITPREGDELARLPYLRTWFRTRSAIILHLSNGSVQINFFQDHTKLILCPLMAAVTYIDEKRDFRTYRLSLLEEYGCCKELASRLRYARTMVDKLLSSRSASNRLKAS
Method: The preparation of a buffer solution was performed by mixing a 3-morpholinopropanesulfonic acid buffer solution (MOPS buffer solution) (pH 7.0), dithiothreitol (DTT), and magnesium acetate (Mg(CH3COO)2). A 1 mM [γ-^33P]ATP solution was used by diluting a 10 mM ATP solution and a commercially available [γ-^33P]ATP solution (manufactured by Perkin Elmer, Inc., Code No. NEG-302H) with the buffer solution. A PLK1 solution was used by diluting commercially available PLK1 (manufactured by Carna Biosciences, Inc., Catalog No. 05-157) with the buffer solution. A substrate solution was used by diluting casein with the buffer solution. As for the preparation of a reaction solution, the buffer solution, the 500 μM [γ-^33P]ATP solution, the PLK1 solution, and the substrate solution were mixed at 4° C. to obtain a reaction solution.
as §2, with “PLK1 enzyme reaction” for “CDK2 enzyme reaction”, “mixed in a vortex mixer,” for “mixed in vortex mixer,”
The calculation of the inhibitory activity of the test compound against PLK1 was performed as a test compound concentration inhibiting 50% of the amount of ^33P bound to casein (IC50 value) by using EXSUS (version 8.1.0, manufactured by CAC Exicare Corp.).
as §3

CDK7 = target: T3, CDK7 (Homo sapiens, UniProt P50613); experiment: CDK7 enzyme inhibition test; format: biochemical; conditions: [γ-33P]ATP, MBP substrate, 60 min preincubation at 25°C; Ki=IC50/(1+S/Km); read-out: Ki value of CDK7 inhibitory activity
T3 construct: purchased Carna Biosciences, Inc. 04-108
T3 sequence (P50613 whole entry): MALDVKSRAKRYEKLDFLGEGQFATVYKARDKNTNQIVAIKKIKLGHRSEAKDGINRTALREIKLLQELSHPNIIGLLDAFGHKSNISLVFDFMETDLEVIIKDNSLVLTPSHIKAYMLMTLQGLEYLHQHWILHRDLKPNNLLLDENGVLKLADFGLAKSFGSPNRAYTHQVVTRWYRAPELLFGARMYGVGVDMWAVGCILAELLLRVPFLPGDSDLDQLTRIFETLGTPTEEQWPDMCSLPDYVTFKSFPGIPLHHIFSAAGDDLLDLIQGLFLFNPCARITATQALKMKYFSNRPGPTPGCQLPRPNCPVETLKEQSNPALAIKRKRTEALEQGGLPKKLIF
T3 sequence (P51946 whole entry partner): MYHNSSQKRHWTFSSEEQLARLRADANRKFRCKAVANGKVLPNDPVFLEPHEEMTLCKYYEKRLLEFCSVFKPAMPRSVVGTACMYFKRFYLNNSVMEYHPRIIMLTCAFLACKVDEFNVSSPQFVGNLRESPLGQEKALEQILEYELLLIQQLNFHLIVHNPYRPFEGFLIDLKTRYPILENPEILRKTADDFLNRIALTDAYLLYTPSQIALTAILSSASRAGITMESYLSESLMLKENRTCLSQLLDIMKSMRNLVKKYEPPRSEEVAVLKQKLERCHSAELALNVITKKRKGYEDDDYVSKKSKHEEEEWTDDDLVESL
T3 sequence (P51948 whole entry partner): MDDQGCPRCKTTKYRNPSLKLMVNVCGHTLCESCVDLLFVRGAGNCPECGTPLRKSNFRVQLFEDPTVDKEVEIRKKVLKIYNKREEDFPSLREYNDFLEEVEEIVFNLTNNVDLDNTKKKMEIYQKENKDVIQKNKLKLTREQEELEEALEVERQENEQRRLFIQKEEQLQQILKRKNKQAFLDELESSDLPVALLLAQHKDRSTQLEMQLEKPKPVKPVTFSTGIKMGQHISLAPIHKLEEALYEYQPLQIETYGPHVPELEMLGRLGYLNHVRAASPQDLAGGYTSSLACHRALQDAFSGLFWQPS
Method: as §1, with “PerkinElmer,” for “Perkin Elmer,”, “CDK7” for “CDK2”, “Carna Biosciences, Inc.,” for “Invitrogen Corp.,”, “04-108)” for “PV3267)”, “CDK7” for “500 μM [γ-^33P]ATP solution, the CDK2”
CDK7 enzyme reaction was performed by adding 5 μL of a test compound solution prepared with 10% DMSO/90% injectable distilled water, and 40 μL of the reaction solution to a 1.5 mL microtube at 4° C. and preincubating the microtube at 25° C. for 60 minutes in a water bath incubator. Subsequently, reaction was performed at 30° C. for 20 minutes by adding 5 μL of the 500 μM [γ-^33P]ATP solution. After the reaction, a 10% aqueous trichloroacetic acid (TCA) solution was added to each microtube while cooled to 4° C., and mixed in a vortex mixer to terminate the reaction. The resultant was left standing at 4° C. for 10 minutes and then centrifuged, and the supernatant was discarded. Next, a 2% aqueous trichloroacetic acid (TCA) solution was added thereto, mixed in a vortex mixer, and then centrifuged, and the supernatant was discarded. This washing operation was performed twice. After the washing, precipitates were dissolved in a 1 N aqueous sodium hydroxide (NaOH) solution, and the energy quantity (radioactivity) of the reaction product was measured with a liquid scintillation counter.
The calculation of the inhibitory activity of the test compound against CDK7 was performed as a test compound concentration inhibiting 50% of the amount of ^33P bound to MBP (IC50 value) by using EXSUS (version 8.1.0, manufactured by CAC Exicare Corp.).
as §3

[1] = tested on: human large intestine cancer cell line (HCT-116); experiment: Human large intestine cancer (HCT-116) cell growth inhibition test; format: cell-based; conditions: HCT-116, 72 h, culture for 3 days, sulforhodamine B, read-out: GI50 value, HCT-116 cell growth inhibition
Method: The measurement of a human large intestine cancer cell growth inhibitory effect was carried out by modifying the method of Simak et al. (Cancer Research, 69, 6208 (2009)).
A human large intestine cancer cell line (HCT-116, obtained from DS Pharma Biomedical Co., Ltd.) was cultured in a McCoy's 5A medium (manufactured by Thermo Fisher Scientific, Inc.) containing 10% fetal bovine serum (FBS) (manufactured by Thermo Fisher Scientific, Inc.) and 1% penicillin/streptomycin/amphotericin B (manufactured by Thermo Fisher Scientific, Inc.) and inoculated at 0.5 to 2.0×10^3 cells/well in a 96-well plate. After overnight culture in a carbon dioxide incubator, the medium was replaced with a fresh medium on the next day, and a test compound dissolved in DMSO (final DMSO concentration: 0.1%) was added thereto and left standing in a carbon dioxide incubator. After culture for 3 days, the absorbance thereof was measured by using In Vitro Toxicology Assay Kit Sulforhodamine B based (manufactured by Sigma-Aldrich Co. LLC.).
The rate of inhibition of cell growth at each concentration was calculated from the test compound concentration and the absorbance of sulforhodamine B, and the concentration of the test compound necessary for inhibiting 50% of cell growth (GI50 value) was calculated by using EXSUS (version 8.1.0, manufactured by CAC Exicare Corp.).

Row | Compound | pKi (CDK2) | pKi (PLK1) | pKi (CDK7) | GI50 [1]
1 | CC1(C)c2[nH]nc(NC(=O)C3([Si](C)(C)C)CCC3)c2CN1C(=O)N1CCc2ccccc21 [I-1000, N-[5-(Indoline-1-carbonyl)-6,6-dimethyl-1,4,5,6-tetrahydropyrrolo[3,4-c]pyrazol-3-yl]-1-(trimethylsilyl)cyclobutanecarboxamide] | ≤ 6.00 | ≤ 5.30 |  | 
2 | COc1ccccc1NC(=O)N1Cc2c(NC(=O)C3([Si](C)(C)C)CCC3)n[nH]c2C1(C)C [IV-75, N-(2-Methoxyphenyl)-6,6-dimethyl-3-[1-(trimethylsilyl)cyclobutanecarboxamido]-4,6-dihydropyrrolo[3,4-c]pyrazole-5(1H)-carboxamide] | ≤ 6.00 |  | ≥ 7.30 | ≤ 100 nM
3 | CC1(C)c2[nH]nc(NC(=O)C3([Si](C)(C)C)CCC3)c2CN1C(=O)Nc1cc(F)ccc1F [IV-103, N-(2,5-Difluorophenyl)-6,6-dimethyl-3-[1-(trimethylsilyl)cyclobutanecarboxamido]-4,6-dihydropyrrolo[3,4-c]pyrazole-5(1H)-carboxamide] |  |  | ≥ 7.30 | ≤ 100 nM
4 | Cc1ccc(NC(=O)N2Cc3c(NC(=O)C4([Si](C)(C)C)CCC4)n[nH]c3C2(C)C)c(F)c1 [IV-125, N-(2-Fluoro-4-methylphenyl)-6,6-dimethyl-3-[1-(trimethylsilyl)cyclobutanecarboxamido]-4,6-dihydropyrrolo[3,4-c]pyrazole-5 (1H)-carboxamide] |  |  | ≥ 7.30 | ≤ 100 nM
5 | Cc1cccc(NC(=O)N2Cc3c(NC(=O)C4([Si](C)(C)C)CCC4)n[nH]c3C2(C)C)c1C [IV-375, N-(2,3-Dimethylphenyl)-6,6-dimethyl-3-[1-(trimethylsilyl)cyclobutanecarboxamido]-4,6-dihydropyrrolo[3,4-c]pyrazole-5(1H)-carboxamide] |  |  | ≥ 7.30 | ≤ 100 nM
6 | CC1(C)c2[nH]nc(NC(=O)C3([Si](C)(C)C)CCC3)c2CN1C(=O)Nc1c(F)cc(F)cc1F [IV-599, 6,6-Dimethyl-N-(2,4,6-trifluorophenyl)-3-[1-(trimethylsilyl)cyclobutanecarboxamido]-4,6-dihydropyrrolo[3,4-c]pyrazole-5(1H)-carboxamide] |  |  | ≥ 7.30 | ≤ 100 nM

More lines, now with the values ahead:

Row | pKi (CDK2) | pKi (PLK1) | pKi (CDK7) | GI50 [1] | Compound
7 | ≤ 6.00 | ≤ 5.30 |  |  | CC1(C)c2[nH]nc(NC(=O)C3([Si](C)(C)C)CCC3)c2CN1C(=O)N1CCOc2ccccc21 [I-1036, N-[5-(3,4-Dihydro-2H-benz[b][1,4]oxazine-4-carbonyl)-6,6-dimethyl-1,4,5,6-tetrahydropyrrolo[3,4-c]pyrazol-3-yl]-1-(trimethylsilyl)cyclobutanecarboxamide]
8 | ≤ 6.00 |  | ≥ 7.30 | ≤ 100 nM | CC1(C)c2[nH]nc(NC(=O)C3([Si](C)(C)C)CCC3)c2CN1C(=O)Nc1ccccc1Cl [IV-9, N-(2-Chlorophenyl)-6,6-dimethyl-3-[1-(trimethylsilyl)cyclobutanecarboxamido]-4,6-dihydropyrrolo[3,4-c]pyrazole-5(1H)-carboxamide]
9 |  |  | ≥ 7.30 | ≤ 100 nM | CC1(C)c2[nH]nc(NC(=O)C3([Si](C)(C)C)CCC3)c2CN1C(=O)Nc1cc(Cl)ccc1F [IV-111, N-(5-Chloro-2-fluorophenyl)-6,6-dimethyl-3-[1-(trimethylsilyl)cyclobutanecarboxamido]-4,6-dihydropyrrolo[3,4-c]pyrazole-5 (1H)-carboxamide]
10 |  | ≤ 5.30 | ≥ 7.30 | ≤ 100 nM | CC1(C)c2[nH]nc(NC(=O)C3([Si](C)(C)C)CCC3)c2CN1C(=O)Nc1c(F)cccc1C(F)(F)F [IV-153, N-[2-Fluoro-6-(trifluoromethyl)phenyl]-6,6-dimethyl-3-[1-(trimethylsilyl)cyclobutanecarboxamido]-4,6-dihydropyrrolo[3,4-c]pyrazole-5(1H)-carboxamide]
11 |  |  | ≥ 7.30 | ≤ 100 nM | Cc1nscc1NC(=O)N1Cc2c(NC(=O)C3([Si](C)(C)C)CCC3)n[nH]c2C1(C)C [IV-1035, 6,6-Dimethyl-N-(3-methylisothiazol-4-yl)-3-[1-(trimethylsilyl)cyclobutanecarboxamido]-4,6-dihydropyrrolo[3,4-c]pyrazole-5 (1H)-carboxamide]
